Source: paper doi:10.1101/2025.02.11.637513v1 (bioRxiv, 2025)
Several values for one entry are separate records, joined by “and”; a condition that tells them apart may be missing. Identical values can stand only once. Non-standard residues stand in square brackets, D forms with d. No end group written: not given here. *: point of attachment. Phe(F5) = N[C@@H](Cc1c(F)c(F)c(F)c(F)c1F)C(=O)O; Bip = N[C@@H](Cc1ccc(-c2ccccc2)cc1)C(=O)O; Cha = N[C@@H](CC1CCCCC1)C(=O)O; Tle = CC(C)(C)[C@H](N)C(=O)O; Bn = c1ccc(C*)cc1

Key:
Test in all cases: tetrapeptide-ACC substrate cleavage kinetics
Type in all cases: biochemical
[1] = target: T1, human caspase-5 (Homo sapiens, UniProt P51878); details: Ac-P4-P3-P2-Asp-ACC substrate, 0.05-500 μM, 20-250 nM enzyme, 37°C, triplicate
T1 sequence (P51878 137-327 limits assumed): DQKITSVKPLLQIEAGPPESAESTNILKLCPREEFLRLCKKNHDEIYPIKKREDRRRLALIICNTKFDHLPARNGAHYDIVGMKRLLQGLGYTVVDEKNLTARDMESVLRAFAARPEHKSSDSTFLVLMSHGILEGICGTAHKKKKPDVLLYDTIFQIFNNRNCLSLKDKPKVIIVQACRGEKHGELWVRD
T1 sequence (P51878 347-434 limits assumed): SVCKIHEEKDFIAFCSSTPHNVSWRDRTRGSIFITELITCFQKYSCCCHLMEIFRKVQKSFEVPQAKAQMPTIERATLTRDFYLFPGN

[2] = target: human caspase-8 (Homo sapiens, UniProt Q14790); details: Ac-P4-P3-P2-Asp-ACC substrate, 0.05-500 μM, 6-42 nM enzyme, 37°C, triplicate
human caspase-8, sequence (Q14790 217-374 limits assumed): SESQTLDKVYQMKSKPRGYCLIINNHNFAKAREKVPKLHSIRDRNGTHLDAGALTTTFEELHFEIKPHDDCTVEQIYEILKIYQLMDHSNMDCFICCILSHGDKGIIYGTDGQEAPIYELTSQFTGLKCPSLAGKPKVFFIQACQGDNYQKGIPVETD
human caspase-8, sequence (Q14790 385-479 limits assumed): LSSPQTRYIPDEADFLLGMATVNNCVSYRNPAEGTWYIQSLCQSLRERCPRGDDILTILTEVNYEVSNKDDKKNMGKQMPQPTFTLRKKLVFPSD

[3] = target: T2, human caspase-7 (Homo sapiens, UniProt P55210); details: Ac-P4-P3-P2-Asp-ACC substrate, 0.05-500 μM, 40-400 nM enzyme, 37°C, triplicate
T2 sequence (P55210 24-198 limits assumed): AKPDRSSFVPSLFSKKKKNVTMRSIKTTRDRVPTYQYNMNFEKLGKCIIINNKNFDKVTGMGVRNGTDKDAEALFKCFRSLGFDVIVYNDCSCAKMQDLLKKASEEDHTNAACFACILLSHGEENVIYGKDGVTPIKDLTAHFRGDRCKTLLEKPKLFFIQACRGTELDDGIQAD
T2 sequence (P55210 207-303 limits assumed): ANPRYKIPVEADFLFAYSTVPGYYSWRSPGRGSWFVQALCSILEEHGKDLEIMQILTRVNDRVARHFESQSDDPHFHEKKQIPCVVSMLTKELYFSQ

[4] = target: T3, human caspase-1 (Homo sapiens, UniProt P29466); details: Ac-P4-P3-P2-Asp-ACC substrate, 0.05-500 μM, 2-15 nM enzyme, 37°C, triplicate
T3 sequence (P29466 120-297 limits assumed): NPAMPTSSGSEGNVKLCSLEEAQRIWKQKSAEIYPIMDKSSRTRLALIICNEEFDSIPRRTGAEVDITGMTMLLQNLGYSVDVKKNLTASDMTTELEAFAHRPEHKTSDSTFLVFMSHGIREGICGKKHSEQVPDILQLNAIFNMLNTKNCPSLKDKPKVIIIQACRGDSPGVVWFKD
T3 sequence (P29466 317-404 limits assumed): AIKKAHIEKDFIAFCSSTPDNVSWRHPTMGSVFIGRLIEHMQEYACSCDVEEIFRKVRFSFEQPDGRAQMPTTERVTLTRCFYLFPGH

[5] = target: T4, human caspase-9 (Homo sapiens, UniProt P55211); details: Ac-P4-P3-P2-Asp-ACC substrate, 0.05-500 μM, 20-150 nM enzyme, 37°C, triplicate
T4 sequence (P55211 1-315 limits assumed): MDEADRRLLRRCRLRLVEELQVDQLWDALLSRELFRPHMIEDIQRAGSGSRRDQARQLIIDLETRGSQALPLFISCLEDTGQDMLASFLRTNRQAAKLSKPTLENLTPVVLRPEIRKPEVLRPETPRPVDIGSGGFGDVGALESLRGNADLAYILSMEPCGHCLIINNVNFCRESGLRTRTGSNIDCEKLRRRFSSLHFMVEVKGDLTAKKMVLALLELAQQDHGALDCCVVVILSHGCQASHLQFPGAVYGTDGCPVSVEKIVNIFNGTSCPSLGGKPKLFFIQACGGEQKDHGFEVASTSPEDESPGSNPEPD
T4 sequence (P55211 331-416 limits assumed): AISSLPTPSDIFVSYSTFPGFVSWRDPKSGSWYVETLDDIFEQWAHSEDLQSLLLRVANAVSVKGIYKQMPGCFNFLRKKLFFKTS

[6] = target: T5, human caspase-3 (Homo sapiens, UniProt P42574); details: Ac-P4-P3-P2-Asp-ACC substrate, 0.05-500 μM, 3-35 nM enzyme, 37°C, triplicate
T5 sequence (P42574 29-175 limits assumed): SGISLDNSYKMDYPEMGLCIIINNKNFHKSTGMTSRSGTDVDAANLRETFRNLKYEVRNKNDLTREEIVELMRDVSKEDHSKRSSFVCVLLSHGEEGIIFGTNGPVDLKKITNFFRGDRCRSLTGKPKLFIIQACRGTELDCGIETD
T5 sequence (P42574 176-277 limits assumed): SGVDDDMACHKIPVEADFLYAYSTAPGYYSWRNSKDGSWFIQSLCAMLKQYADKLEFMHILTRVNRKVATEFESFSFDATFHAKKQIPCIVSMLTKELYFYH

[7] = target: T6, human caspase-4 (Homo sapiens, UniProt P49662); details: Ac-P4-P3-P2-Asp-ACC substrate, 0.05-500 μM, 35-200 nM enzyme, 37°C, triplicate
T6 sequence (P49662 81-270 limits assumed): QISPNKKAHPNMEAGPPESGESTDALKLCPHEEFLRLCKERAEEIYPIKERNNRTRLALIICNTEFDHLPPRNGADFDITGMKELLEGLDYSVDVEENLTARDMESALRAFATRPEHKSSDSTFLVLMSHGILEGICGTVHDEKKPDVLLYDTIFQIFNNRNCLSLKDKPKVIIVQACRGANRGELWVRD
T6 sequence (P49662 290-377 limits assumed): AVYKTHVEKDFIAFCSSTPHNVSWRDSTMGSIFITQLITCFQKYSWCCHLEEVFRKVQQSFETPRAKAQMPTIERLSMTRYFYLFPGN

Substance	kcat/KM caspase-5 [1]	kcat/KM caspase-8 [2]	kcat/KM caspase-7 [3]	kcat/KM caspase-1 [4]	kcat/KM caspase-9 [5]	kcat/KM caspase-3 [6]	kcat/KM caspase-4 [7]
[Tle]MHD	5 120 M^-1s^-1	14 800 M^-1s^-1	280 M⁻¹ s⁻¹	23 100 M^-1s^-1	8 360 M^-1s^-1	20 740 M^-1s^-1	2 020 M^-1s^-1
Trp-Gln-Val-Asp	5 100 M^-1s^-1	3 870 M^-1s^-1	100 M⁻¹ s⁻¹	124 800 M^-1s^-1	220 M⁻¹ s⁻¹	12 140 M^-1s^-1	4 300 M^-1s^-1
Leu-Glu-Ser-Asp	13500 M⁻¹ s⁻¹	19 200 M^-1s^-1	20 M⁻¹ s⁻¹	20 000 M^-1s^-1	3550 M⁻¹ s⁻¹	950 M⁻¹ s⁻¹	3 390 M^-1s^-1
V[Bip]HD	380 M⁻¹ s⁻¹	2 710 M^-1s^-1	190 M⁻¹ s⁻¹	9 100 M^-1s^-1	1 790 M^-1s^-1	15 820 M^-1s^-1	1 640 M^-1s^-1
[Tle][Bip]HD	5 280 M^-1s^-1	11 700 M^-1s^-1	160 M⁻¹ s⁻¹	10 900 M^-1s^-1	8 430 M^-1s^-1	16 920 M^-1s^-1	2 820 M^-1s^-1
Tle-Bpa-His(Bzl)-Asp	2 650 M^-1s^-1	6 400 M^-1s^-1	100 M⁻¹ s⁻¹	25 300 M^-1s^-1	4 210 M^-1s^-1	23 360 M^-1s^-1	4 390 M^-1s^-1
YT(Bn)HD	6 920 M^-1s^-1	4 760 M^-1s^-1	270 M⁻¹ s⁻¹	201 400 M^-1s^-1	7 970 M^-1s^-1	4 500 M^-1s^-1	1 260 M^-1s^-1
Tyr-Val-Lys(tfa)-Asp	1 360 M^-1s^-1	1 260 M^-1s^-1	200 M⁻¹ s⁻¹	28 100 M^-1s^-1	250 M⁻¹ s⁻¹	1 430 M^-1s^-1	660 M⁻¹ s⁻¹
W[Tle]HD	12 930 M^-1s^-1	1 240 M^-1s^-1	40 M⁻¹ s⁻¹	271 900 M^-1s^-1	10 220 M^-1s^-1	600 M⁻¹ s⁻¹	10 640 M^-1s^-1
Tle-hGlu-Thr(Bzl)-Asp	5 750 M^-1s^-1	125 800 M^-1s^-1	17 430 M^-1s^-1	12 400 M^-1s^-1	7 820 M^-1s^-1	179 800 M^-1s^-1	2 130 M^-1s^-1
Y(Me)QTD	2 420 M^-1s^-1	2 670 M^-1s^-1	1 530 M^-1s^-1	105 200 M^-1s^-1	550 M⁻¹ s⁻¹	8 740 M^-1s^-1	810 M⁻¹ s⁻¹
Trp-Thr-ProAsp	3 180 M^-1s^-1	960 M⁻¹ s⁻¹	30 M⁻¹ s⁻¹	110 000 M^-1s^-1	110 M⁻¹ s⁻¹	700 M⁻¹ s⁻¹	1 920 M^-1s^-1
[Cha]EHD	34 640 M^-1s^-1 and 48 140 M^-1s^-1	28 040 M^-1s^-1 and 27 690 M^-1s^-1	370 M⁻¹ s⁻¹ and 380 M⁻¹ s⁻¹	184 300 M^-1s^-1 and 113 800 M^-1s^-1	8 770 M^-1s^-1 and 9 270 M^-1s^-1	6 390 M^-1s^-1 and 6 530 M^-1s^-1	21 340 M^-1s^-1 and 25 050 M^-1s^-1
Y[Phe(F5)]HD	14 900 M^-1s^-1	3 150 M^-1s^-1	210 M⁻¹ s⁻¹	161 900 M^-1s^-1	7 300 M^-1s^-1	8 500 M^-1s^-1	2 270 M^-1s^-1
Tyr-Val-His-Asp	9 640 M^-1s^-1	2 550 M^-1s^-1	150 M⁻¹ s⁻¹	140 500 M^-1s^-1	15 800 M^-1s^-1	1 530 M^-1s^-1	2 920 M^-1s^-1
